Assay results from BigSolDB 2.1.

CC(=O)Nc1ccc(OC(=O)c2ccccc2OC(C)=O)cc1
solubility (mole fraction)
Conditions | 278.15 K | 283.15 K | 288.15 K | 293.15 K | 298.15 K | 303.15 K | 308.15 K | 313.15 K | 318.15 K
in 1,4-dioxane | – | – | – | 0.00169 | 0.00204 | 0.0025 | 0.00298 | 0.0035 | 0.00427
in 2-butanone | 0.0025 | 0.00267 | 0.00287 | 0.00308 | 0.00333 | 0.00361 | 0.00392 | 0.00429 | 0.00465
in DMF | 0.0172 | 0.0182 | 0.0192 | 0.0203 | 0.0215 | 0.0228 | 0.0242 | – | –
in NMP | 0.0209 | 0.024 | 0.0272 | 0.0304 | 0.0341 | 0.0378 | 0.0417 | 0.0464 | 0.0512
in acetonitrile | 0.000681 | 0.000855 | 0.00105 | 0.00134 | 0.00164 | 0.00199 | 0.00236 | 0.00283 | 0.00339
in ethanol | 0.000158 | 0.00021 | 0.000265 | 0.000326 | 0.000403 | 0.000486 | 0.000589 | 0.000733 | 0.000907
in ethyl acetate | 0.000392 | 0.000519 | 0.000651 | 0.000789 | 0.000983 | 0.00119 | 0.00141 | 0.00169 | 0.00198
in isopropanol | 7.6e-05 | 0.000107 | 0.000139 | 0.000178 | 0.000217 | 0.000262 | 0.000323 | 0.000394 | 0.000493
in methanol | 0.000143 | 0.000182 | 0.000228 | 0.000278 | 0.000337 | 0.000403 | 0.000485 | 0.000601 | 0.000745
in n-butanol | 0.000179 | 0.000235 | 0.0003 | 0.000375 | 0.000459 | 0.000557 | 0.000683 | 0.000852 | 0.00104
in n-propanol | 8.8e-05 | 0.000128 | 0.000173 | 0.000214 | 0.000264 | 0.000327 | 0.000402 | 0.000496 | 0.000647
in toluene | 1.3e-05 | 1.8e-05 | 2.5e-05 | 3.4e-05 | 4.3e-05 | 5.5e-05 | 6.8e-05 | 8.6e-05 | 0.000108
